The target of experiment [1] is T1, neuronal NOS (nNOS) (Rattus norvegicus, UniProt P29476).
T1 construct: from tissue; host or cells: living rat (brain)
The experiment is described as follows: Effect on rat cerebral ischemia model by inhibition of nNOS: reperfusion model. In kind it is in vivo. As to conditions: 10 minutes before occlusion, immediately before and 3 hours after reperfusion, infarct area after 48 hours. The text has this: Effect on rat cerebral ischemia model by inhibition of neuronal NOS (nNOS): reperfusion model
A rat (weight: 300 g) was fasted overnight and a middle cerebral artery of the rat was occluded and then reperfused to prepare a cerebral ischemia model, according to the method of Koizumi et al. (Jpn. J. Stroke, 8, 1-8 (1986)). More specifically, a rat breathing naturally was immobilized under anesthesia with a laughing gas - oxygen mixed gas and halothane, and then, underwent cervical median dissection. A silicon-coated nylon thread was inserted into an internal carotid artery from a branched portion at which a right external carotid artery and the internal carotid artery is divided, thereby blocking the middle cerebral artery for 1.5 hours. Thereafter, the occluding of the middle cerebral artery was reperfused by removing a thread. After 48 hours, 6 coronal sections were prepared and stained by means of a triphenyltetrazolium chloride method. Non-stained portions were determined as infarct area. The test compound was intravenously injected 10 minutes before the occlusion of middle cerebral artery, immediately before, and 3 hours after reperfusion. The inhibitory effect of each compound was determined.

For experiment [2], the target named is T2, endothelium nitric oxide synthase (eNOS) (Rattus norvegicus, UniProt Q62600).
T2 construct: from tissue; host or cells: living anesthetized rat
The experiment is described as follows: Blood pressure elevating activity in rat by inhibition of eNOS. As to conditions: dose to elevate mean blood pressure by 25 mmHg; anesthetized rat, administered via femoral vein. It counts as in vivo. On the procedure: Blood pressure elevating activity in rat by inhibition of endothelium nitric oxide synthase (eNOS) A rat was anesthetized with by peritoneal injection of sodium barbital (300 mg/kg) and catheters were inserted into a femoral artery and a femoral vein. Blood pressure was measured through the catheter inserted in the femoral artery and a test compound was administered through the catheter inserted in the femoral vein. […]

The target of experiment [3] is T3, inducible NO synthase (iNOS) (Rattus norvegicus, UniProt Q06518). Briefly: Effect on rat-paw carrageenin edema model by inhibition of iNOS. The following applies: oral, 1 hour prior to carrageenin, paw volume 4 hours after induction; for ED50: rat, read-out: Suppression Effect (ED₅₀). In kind it is in vivo. On the procedure: Effect on rat-paw carrageenin edema model by inhibition of inducible NO synthase (iNOS)
To a rat's left leg, 1 % carrageenin solution was subcutaneously administered to induce a paw edema. 4 hours after the induction, paw volume was measured. A test compound was orally administered 1 hour prior to the carrageenin administration. The suppression effect of the test compound was determined.
In general terms: The carrageenan paw model is a standard test of acute inflammation.

Experiment [4] addresses T3, inducible NO synthase (iNOS). Briefly: Activity to inhibit inducible NO synthase (iNOS) derived from rat macrophages; conversion of [3H]-L-arginine to [3H]-L-citrulline. In kind it is biochemical. More on the design: iNOS was extracted from the macrophages which have been treated with lipopolysaccharide and interferon-γ; endogenous in cells; host or cells: rat peritoneal macrophages treated with lipopolysaccharide and interferon-γ. On the procedure: Activity to inhibit inducible NO synthase (iNOS) derived from rat macrophages
According to partly modified method of Y. Yui et al.(J. Biol. Chem., 266 (19), 12544-12547 (1991)), an iNOS fraction was prepared by applying lipopolysaccharide and interferon-γ to peritoneal macrophages. Thereafter, its enzymatic activity was measured based on the conversion of [³H]-L-arginine to [³H]-L-citrulline, in the same manner as in the case of cNOS.
To the iNOS thus extracted, a 50 mM Tris-HCl buffer solution (pH 7.4) containing 150 µM L-arginine, 5 mM NADPH, 5 mM DTT, 0.5 mM 5,6,7,8-tetrahydro-L-biopterin and 5 µM FAD was added together with a test compound and [³H]-L-arginine. The mixture was incubated for 30 minutes at 37°C. Thereafter, the reaction was terminated by adding a 25 mM sodium acetate buffer solution (pH 5.5) containing 1.25 mM L-citrulline, 2.5 mM EDTA and 0.25 mM EGTA. The reaction solution was passed through a cation-exchange resin. The obtained eluate was combined with the additional eluate obtained thereafter by eluting with water, and the radioactivity of the combined eluate was measured. The inhibition rate of the test compound on iNOS was calculated in the same manner as in Test 1. The concentration (IC₅₀) of the test compound required for inhibiting 50 % of the enzyme activity, were calculated.

Experiment [5] deals with T4, constitutive NO synthase (cNOS) (Rattus norvegicus, UniProt P29476).
T4 construct: cNOS was extracted from a rat cerebellum; from tissue; host or cells: rat cerebellum
The experiment is described as follows: Activity to inhibit constitutive NO synthase (cNOS) derived from rat cerebellum; conversion of [3H]-L-arginine to [3H]-L-citrulline. It counts as biochemical. On the procedure: Activity to inhibit constitutive NO synthase (cNOS) derived from rat cerebellum
The inhibition activity was tested according to a method of P. A. Bush et al. (Biochem, Biophys, Res. Commun., 185, 960-966 (1992)), using [³H]-L-arginine as a substrate and taking the conversion of [³H]-L-arginine to [³H]-L-citrulline as an index of the enzyme activity.
The test was conducted as follows: First, cNOS was extracted from a rat cerebellum with a 50 mM Tris-HCl buffer solution (pH 7.4) which contains 0.1 mM EDTA (ethylenediamine tetraacetate), 0.1 mM EGTA (ethyleneglycol bis(β-aminoethyl ether)-tetraacetate), 0.5 mM DTT (dithiothreitol), 1 µM PMSF (phenylmethylsulfonyl fluoride), 1 µM bestatin A, and 1 µM leupeptin. To the cNOS thus extracted, a 50 mM Tris-HCl buffer solution (pH 7.4) containing 10 µM L-arginine, 10 µM NADPH, 2 mM calcium chloride and calmoduline (0.1 µg), together with a test compound and [³H]-L-arginine were added. The mixture was incubated for 10 minutes at 25°C. The reaction was terminated by adding 20 mM sodium acetate buffer solution (pH 5.5) containing 1 mM L-citrulline, 2 mM EDTA, and 0.2 mM EGTA. The reaction solution was passed through a cation-exchange resin. This eluate was combined with another eluate which was obtained thereafter by eluting with water. To the combined eluate, a liquid scintillation cocktail was further added and its radioactivity (A) was measured. At the same time, the radioactivity (B) with respect to the case where the test compound was not added and the radioactivity (C) with respect to the case where an enzyme fraction was not added, were respectively measured. Then, the rate of cNOS inhibition was calculated in accordance with the following equation. The concentration (IC₅₀), at which the test compound can inhibit 50 % of the enzyme activity, were also calculated. Inhibition rate (%) = {1 - (A - C/B - C)} × 100 [formula]

The target in experiment [6] is T1, neuronal NOS (nNOS). Briefly: Effect on rat cerebral ischemia model by nNOS inhibition: permanent occlusion model. As to conditions: dose 10µg/kg+1µg/kg/min; intravenous 5 minutes after occlusion, then infused for 6 hours; cerebral infarct area after 24 hours. It counts as in vivo. The text has this:
Effect on rat cerebral ischemia model by neuronal NOS (nNOS) inhibition: permanent occlusion model According to a partly modified method of Tamura et al. (J. Cereb. Blood Flow Matab., 1, 53-60 (1981)), an cerebral ischemia model was established by permanently blocking a rat middle cerebral artery. That is, a rat was anesthetized with laughing gas - oxygen and halothane, and then, a hole was formed at a cranial bone in the periphery of oval foramen, thereby exposing the middle cerebral artery. Subsequently, a middle cerebral artery was clipped and coagulated, thereby established a permanent occlusion model. After 24 hours, a brain was excised out and cerebral infarct area were determined by use of triphenyltetrazolium chloride. A test compound was injected intravenously 5 minutes after the occlusion and subsequently infused for 6 hours. The suppression effect was investigated.

[7] abbreviates: iNOS from peritoneal macrophages treated with lipopolysaccharide and interferon-γ, 150 µM L-arginine, 30 minutes at 37°C, read-out: IC₅₀.
Setting [8] is: cNOS extracted from rat cerebellum, 10 µM L-arginine, 10 minutes at 25°C, read-out: IC₅₀.

Structures can show the parent of a compound that is named as a salt. Where two headings read alike, the source gives them in different places.

As for `Br.CCC[C@@H]1CCSC(N)=N1` [Example 3, (R)-2-amino-5,6-dihydro-4-propyl-4H-1,3-thiazine hydrobromide], the “Inhibitory Effect” value in experiment [1] (dose 10 µg/kg intravenously) is listed as “○ (10)”. This compound returned an ED₂₅ in experiment [2] of 0.2 mg/kg. Besides, in experiment [3], the “Suppression Effect” value is on record as “○” and the ED50 came out at 9 mg/kg.
Take `CCOC1CCSC(N)=N1` (stereo not shown) [Example 21, Bis(2-amino-4-ethoxy-5,6-dihydro-4H-1,3-thiazine) fumarate]: the “Inhibitory Effect” value in experiment [1] (dose 3 µg/kg intravenously) is “○ (3)”. Besides, the ED₂₅ in experiment [2] worked out at 0.06 mg/kg. The IC50 in experiment [4] was 30 nM. The compound further gave an IC50 in experiment [5] of 20 nM. Also, in experiment [3], the “Suppression Effect” value is “○” and the ED50 came to 0.5 mg/kg.
For `NC1=NC(OCCc2ccccc2)CCS1` (stereo not shown) [Example 25, Bis(2-amino-5,6-dihydro-4-(2-phenyl)ethyloxy-4H-1,3-thiazine) fumarate], the IC50 was determined as 300 nM in experiment [4] and 100 nM in experiment [5].
In the same order, the values of `CCOC1CC(C)SC(N)=N1` (stereo not shown) [Example 26, Bis(2-amino-4-ethoxy-5,6-dihydro-6-methyl-4H-1,3-thiazine) fumarate] are 90 nM and 80 nM.
For the compound `CC1CC(OCc2ccccc2)N=C(N)S1` (stereo not shown) [Example 27, Bis(2-amino-4-benzyloxy-5,6-dihydro-6-methyl-4H-1,3-thiazine), fumarate], the IC50 in experiment [4] and in experiment [5] was 400 nM in each case.
Consider `CC1CN=C(N)SC1` (stereo not shown) [Example 28, 2-amino-5,6-dihyro-5-methyl-4H-1,3-thiazine hydrobromide], for which the IC50 in experiment [4] was 200 nM; in experiment [5] it was 100 nM.
As for `CC1(C)CCN=C(N)S1` [Example 29, 2-amino-5,6-dihydro-6,6-dimethyl-4H-1,3-thiazine hydrochloride], the IC50 stood at 200 nM in experiment [4] (setting [7]) and 100 nM in experiment [5] (setting [8]).
For the compound `Br.COC[C@@H]1CCSC(N)=N1` [Example 30, (S)-2-amino-5,6-dihydro-4-methoxymethyl-4H-1,3-thiazine hydrobromide], in experiment [1] (dose 10 µg/kg intravenously), the “Inhibitory Effect” value is listed as “○ (10)”. Also, in experiment [2], the ED₂₅ amounted to 0.15 mg/kg. The IC50 in experiment [4] (setting [7]) came out at 20 nM; in experiment [5] (setting [8]), 30 nM.
On to `CCC[C@@H]1CCSC(N)=N1.Cl` [Example 31, (R)-2-amino-5,6-dihydro-4-propyl-4H-1,3-thiazine hydrochloride], for which the ED₂₅ in experiment [2] came to 0.46 mg/kg. The figures for the IC50 in experiment [4] (setting [7]) and in experiment [5] (setting [8]) were 10 nM and 20 nM, respectively. Besides, the “Suppression Effect” value in experiment [6] was “○ (10µg/kg+1µg/kg/min)”.

The record behind these values is patent publication EP0717040A1, “Thiazine or thiazepine derivatives which inhibit NOS” (Japan Tobacco Inc., priority 1994, dated 1996).
